For series [1] the following is noted: cited from earlier work.
The conditions of series [2]: cited from earlier work. The source holds these as a separate data set.
The target in a further series is T1, HSA (Homo sapiens, UniProt P02768).
T1 construct: from tissue; host or cells: serum
To be noted: cited from earlier work.

Series [3] in a line: Serum concentration of CMPF in normal and uremic subjects. It is filed as in vivo, human. To be noted: uremic versus average normal concentration. As to the method: FIG. 4 illustrates carboxy-4-methyl-5-propyl-2-furanpropionate (CMPF) 401 in accordance with the present disclosure. CMPF is a 240 Da metabolite of furan fatty acids and a protein-bound uremic retention solute normally cleared by the healthy kidney. In CKD patients, CMPF levels are increased 5- to 15-fold compared to healthy subjects.
An average normal concentration for CMPF may be a mean (±SD) of about 4.6±1.8 with a range between about 3.6 and 7.7 mg/L. In uremic patients the mean concentration (CU) is about 25.9±10.2 mg/L (with a range of about 3.7 to 94 mg/L).
Accordingly, the relative increase (CU/CN) may be over 5-times higher than the average normal concentration. […] As much as 99.5% of all CMPF may be found bound to HSA in serum. Consequently, this high association to HSA may prevent a sufficient secretion due to lower renal clearance rates in uremic patients, for example, at a rate of about 0.05 mL/min, compared to 0.40 mL/min for healthy patients. Due to its strong binding affinity to HSA, the removal of CMPF through conventional hemodialysis is generally difficult and even practically ineffective.

In series [4] the target is human serum albumin (HSA) (Homo sapiens, UniProt P02768). To be noted: cited from earlier work.
Sequence of human serum albumin (HSA) (P02768 25-609): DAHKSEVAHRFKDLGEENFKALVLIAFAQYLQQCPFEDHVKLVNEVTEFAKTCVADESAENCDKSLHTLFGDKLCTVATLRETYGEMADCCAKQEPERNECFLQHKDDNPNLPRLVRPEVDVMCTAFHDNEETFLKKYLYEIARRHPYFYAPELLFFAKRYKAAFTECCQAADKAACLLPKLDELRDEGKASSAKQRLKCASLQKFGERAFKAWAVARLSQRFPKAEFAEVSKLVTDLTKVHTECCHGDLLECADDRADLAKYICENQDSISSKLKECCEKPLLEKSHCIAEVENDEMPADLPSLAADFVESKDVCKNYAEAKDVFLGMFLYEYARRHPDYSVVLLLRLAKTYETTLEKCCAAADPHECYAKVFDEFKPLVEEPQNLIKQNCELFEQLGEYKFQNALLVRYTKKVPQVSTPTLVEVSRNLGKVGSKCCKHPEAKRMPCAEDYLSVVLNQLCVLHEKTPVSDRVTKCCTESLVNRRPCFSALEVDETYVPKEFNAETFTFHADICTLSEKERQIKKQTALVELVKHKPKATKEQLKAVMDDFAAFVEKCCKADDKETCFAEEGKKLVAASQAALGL
The test system of another series is Piezo1. Conditions: cited from earlier work.
The target in another series is HSA's binding site 1 (Homo sapiens, UniProt P02768). To be noted: cited from earlier work.
Sequence of HSA's binding site 1 (P02768 25-609): as above

Each structure is given as a SMILES string. Read-outs that look alike come from different tables or passages of the source.

The values that follow come from patent publication US20230405201A1, “TECHNIQUES FOR INCREASING RED BLOOD CELL COUNT” (FRESENIUS MEDICAL CARE HOLDINGS, INC., priority 2020, published 2023).

T1 sequence (P02768 25-609): as above

With `CCCc1oc(CCC(=O)O)c(C(=O)O)c1C` [CMPF, 3-carboxy-4-methyl-5-propyl-2-furanpropionate], the “average normal concentration, mean (±SD)” value in series [1] (normal) is given as “about 4.6±1.8 mg/L”. In addition, the “mean concentration (CU)” value in series [1] (uremic patients) was “about 25.9±10.2 mg/L”. Besides, the renal clearance rate in series [2] (healthy patients) is 0.40 mL/min; in series [2] (uremic patients) it was “about 0.05 mL/min”. For the same compound, the “CMPF found bound to HSA in serum” value on HSA is reported as ≤ 99.5%. Further, the “relative increase (CU/CN)” value in series [3] is given as “over 5 times”. Also, the “constant of association with HSA molecules” value in series [4] is reported as “about 10^8 M^−1”.
Take `Cc1oc(-c2cccs2)cc1C(=O)O` [Jedi2]: the Piezo1 stimulation entry with Piezo1 is given as “stimulate Piezo1”.
With `CC(C)C1=CC(=O)C2(C)C(C1=O)C1(C)C(=O)C=C(C(C)C)C(=O)C21` (centres unmarked) [DTQ, dithymoquinone], the “binding affinity towards HSA's binding site 1 relative to CMPF” value at HSA's binding site 1 was “higher binding affinity towards HSA's binding site 1 than CMPF”.
With `Clc1cccc(Cl)c1CSc1nnc(-c2cnccn2)s1` [Yoda1], the Piezo1 stimulation entry in the series on Piezo1 is “stimulate Piezo1”.
For the compound `Cc1oc(-c2ccccc2)cc1C(=O)O` [Jedi1], the Piezo1 stimulation result in the series with Piezo1 was “stimulate Piezo1”.
